20 molecules from US20250230172A1 (Vanqua Bio, Inc., priority 2021, published 2025) can be followed below.

The target in the experiment is T1, GCase (Homo sapiens, UniProt P04062).
T1 construct: endogenous in cells; host or cells: HeLa cells
T1 sequence (P04062 40-536): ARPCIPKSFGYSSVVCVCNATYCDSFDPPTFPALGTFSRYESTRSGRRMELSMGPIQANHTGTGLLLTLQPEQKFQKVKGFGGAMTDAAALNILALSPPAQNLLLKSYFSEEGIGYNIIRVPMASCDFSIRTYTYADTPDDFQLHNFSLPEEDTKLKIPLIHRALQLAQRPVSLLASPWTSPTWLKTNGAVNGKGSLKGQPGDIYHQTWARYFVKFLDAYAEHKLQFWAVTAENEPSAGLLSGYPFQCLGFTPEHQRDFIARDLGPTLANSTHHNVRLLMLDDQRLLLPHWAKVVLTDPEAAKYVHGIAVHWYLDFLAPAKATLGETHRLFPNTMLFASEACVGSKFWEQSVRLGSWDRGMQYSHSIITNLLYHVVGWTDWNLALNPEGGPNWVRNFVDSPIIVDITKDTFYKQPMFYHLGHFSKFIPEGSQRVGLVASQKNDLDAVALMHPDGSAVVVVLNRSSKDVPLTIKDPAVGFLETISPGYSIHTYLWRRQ
The experiment in a line: live cell PFB assay in HELA cells for activation of GCase. The experiment is classed as cell-based. As for the experimental part:
Exemplary compounds were evaluated for activation of GCase in a live cell PFB assay in HELA cells (essentially as described in Ysselstein et al., “LRRK2 kinase activity regulates lysosomal glucocerebrosidase in neurons derived from Parkinson's disease patients” Nature Communications (2019) 10:5570). […] EC50 ranges: A: <10 μM; B: >10-50 μM; C: >50-100 μM; D: >100 μM.
As usually defined, the EC50 is the concentration needed to bring the measured effect to its halfway point. A high value points to a need for much substance. Consider `FC(F)Cn1ncc2ncc(N[C@H]3C[C@@H]4CN(c5cccnc5C(F)(F)F)C[C@@H]4C3)nc21` [Compound 37, (3aR,5R,6aS)—N-[1-(2,2-difluoroethyl)-1H-pyrazolo[3,4-b]pyrazin-6-yl]-2-[2-(trifluoromethyl)pyridin-3-yl]-octahydrocyclopenta[c]pyrrol-5-amine], for which the half-maximal effective concentration (EC50) is below 10 µM.

On to `FC(F)Cn1ncc2ncc(N[C@H]3C[C@@H]4CN(c5cc(C(F)(F)F)cnn5)C[C@@H]4C3)nc21` [Compound 83, 1-(2,2-difluoroethyl)-N-((3aR,5s,6aS)-2-(5-(trifluoromethyl)pyridazin-3-yl)octahydrocyclopenta[c]pyrrol-5-yl)-1H-pyrazolo[3,4-b]pyrazin-6-amine], for which the EC50 fell in the range of 10 to 50 µM. The molecule `FC(F)Cn1ncc2ncc(N3CCN4C[C@H](Oc5cccnc5C(F)(F)F)C[C@H]4C3)nc21` [Compound 26, 3-{[(7R,8aS)-2-[1-(2,2-difluoroethyl)-1H-pyrazolo[3,4-b]pyrazin-6-yl]-octahydropyrrolo[1,2-a]pyrazin-7-yl]oxy}-2-(trifluoromethyl)pyridine] had a concentration giving a half-maximal response (EC50) of 50 to 100 µM.

On to `O=C1[C@@H]2CN(c3cccc(C(F)(F)F)n3)C[C@@H]2CN1c1cnc2cnn(CC(F)F)c2n1` (racemic) [Compound 62, rac-(3aR,6aS)-2-[1-(2,2-difluoroethyl)-1H-pyrazolo[3,4-b]pyrazin-6-yl]-5-[6-(trifluoromethyl)pyridin-2-yl]-octahydropyrrolo[3,4-c]pyrrol-1-one], for which the half-maximal effective concentration (EC50) is 10 to 50 µM. `FC(F)Cn1ncc2ncc(N3C[C@@H]4CN(c5cc(C(F)(F)F)ccn5)C[C@H]4C3)nc21` (racemic) [Compound 44, rac-2-[(3aR,6aR)-5-[1-(2,2-difluoroethyl)-1H-pyrazolo[3,4-b]pyrazin-6-yl]-octahydropyrrolo[3,4-c]pyrrol-2-yl]-4-(trifluoromethyl)pyridine] gave an EC50 above 100 µM. `FC(F)Cn1ncc2ncc(N[C@H]3C[C@@H]4CN(c5ccc(C(F)(F)F)cn5)C[C@@H]4C3)nc21` [Compound 40, (3aR,5S,6aS)—N-[1-(2,2-difluoroethyl)-1H-pyrazolo[3,4-b]pyrazin-6-yl]-2-[5-(trifluoromethyl)pyridin-2-yl]-octahydrocyclopenta[c]pyrrol-5-amine] registered an EC50 of 10 to 50 µM. As for `FC(F)Cn1ncc2ncc(N3C[C@@H]4CN(c5ccc(C(F)(F)F)nc5)C[C@H]4C3)nc21` (racemic) [Compound 48, rac-5-[(3aR,6aR)-5-[1-(2,2-difluoroethyl)-1H-pyrazolo[3,4-b]pyrazin-6-yl]-octahydropyrrolo[3,4-c]pyrrol-2-yl]-2-(trifluoromethyl)pyridine], the figure is 10 to 50 µM; as for `FC(F)Cn1ncc2ncc(N3CC4CC(Oc5cc(C(F)(F)F)ccn5)CC4C3)nc21` (centres unmarked) [Compound 30, 2-({2-[1-(2,2-difluoroethyl)-1H-pyrazolo[3,4-b]pyrazin-6-yl]-octahydrocyclopenta[c]pyrrol-5-yl}oxy)-4-(trifluoromethyl)pyridine], below 10 µM. In the case of `FC(F)Cn1ncc2ncc(N[C@H]3C[C@@H]4CN(c5ncc(C(F)(F)F)cn5)C[C@@H]4C3)nc21` [Compound 86, 1-(2,2-difluoroethyl)-N-((3aR,5s,6aS)-2-(5-(trifluoromethyl)pyrimidin-2-yl)octahydrocyclopenta[c]pyrrol-5-yl)-1H-pyrazolo[3,4-b]pyrazin-6-amine] it was 10 to 50 µM; in that of `FC(F)Cn1ncc2ncc(N3C[C@H]4CCN(c5ccc(C(F)(F)F)nc5)C[C@H]4C3)nc21` (racemic) [Compound 20, rac-5-[(3aR,7aR)-2-[1-(2,2-difluoroethyl)-1H-pyrazolo[3,4-b]pyrazin-6-yl]-octahydro-1H-pyrrolo[3,4-c]pyridin-5-yl]-2-(trifluoromethyl)pyridine], 10 to 50 µM; in that of `FC(F)Cn1ncc2ncc(N[C@H]3CC[C@@H]4CN(c5cc(C(F)(F)F)ccn5)C[C@@H]4C3)nc21` (single isomer, unassigned) [Compound 72], below 10 µM. Regarding `FC(F)Cn1ncc2ncc(N3CC[C@@H]4CN(c5cccc(C(F)(F)F)n5)C[C@@H]4C3)nc21` (racemic) [Compound 7], the EC50 is below 10 µM. `FC(F)Cn1ncc2ncc(-n3cc4c(n3)CCN(c3ncccc3C(F)(F)F)C4)nc21` [Compound 63, 1-(2,2-difluoroethyl)-6-(5-(3-(trifluoromethyl)pyridin-2-yl)-4,5,6,7-tetrahydro-2H-pyrazolo[4,3-c]pyridin-2-yl)-1H-pyrazolo[3,4-b]pyrazine] had an EC50 below 10 µM. In the case of `FC(F)Cn1ncc2ncc(N3C[C@H]4CCN(c5ccncc5C(F)(F)F)C[C@H]4C3)nc21` (racemic) [Compound 22, rac-4-[(3aR,7aR)-2-[1-(2,2-difluoroethyl)-1H-pyrazolo[3,4-b]pyrazin-6-yl]-octahydro-1H-pyrrolo[3,4-c]pyridin-5-yl]-3-(trifluoromethyl)pyridine], the EC50 is below 10 µM. In turn, `FC(F)Cn1ncc2ncc(N3CC[C@H]4[C@@H]3CCN4c3cccc(C(F)(F)F)n3)nc21` (racemic) [Compound 57, rac-2-[(3aR,6aR)-4-[1-(2,2-difluoroethyl)-1H-pyrazolo[3,4-b]pyrazin-6-yl]-octahydropyrrolo[3,2-b]pyrrol-1-yl]-6-(trifluoromethyl)pyridine] had a concentration for a half-maximal effect (EC50) of 10 to 50 µM. Molecule `FC(F)Cn1ncc2ncc(N[C@H]3C[C@@H]4CN(c5ccc(C(F)(F)F)nc5)C[C@@H]4C3)nc21` [Compound 42, (3aR,5S,6aS)—N-[1-(2,2-difluoroethyl)-1H-pyrazolo[3,4-b]pyrazin-6-yl]-2-[6-(trifluoromethyl)pyridin-3-yl]-octahydrocyclopenta[c]pyrrol-5-amine] displayed a concentration for a half-maximal effect (EC50) of 10 to 50 µM.

Regarding `FC(F)Cn1ncc2ncc(N3CC[C@@H]4CN(c5cnccc5C(F)(F)F)C[C@@H]4C3)nc21` (racemic) [Compound 15, rac-3-[(3aR,7aS)-5-[1-(2,2-difluoroethyl)-1H-pyrazolo[3,4-b]pyrazin-6-yl]-octahydro-1H-pyrrolo[3,4-c]pyridin-2-yl]-4-(trifluoromethyl)pyridine], the EC50 fell in the range of 10 to 50 µM. For the molecule `FC(F)Cn1ncc2ncc(N[C@H]3C[C@@H]4CN(c5cc(C(F)(F)F)ccn5)C[C@@H]4C3)nc21` [Compound 35, (3aR,5R,6aS)—N-[1-(2,2-difluoroethyl)-1H-pyrazolo[3,4-b]pyrazin-6-yl]-2-[4-(trifluoromethyl)pyridin-2-yl]-octahydrocyclopenta[c]pyrrol-5-amine], the EC50 was below 10 µM. As for `FC(F)Cn1ncc2ncc(N[C@@H]3C[C@@H]4CN(c5cc(C(F)(F)F)ccn5)C[C@@H]4C3)nc21` [Compound 33, (3aR,5S,6aS)—N-[1-(2,2-difluoroethyl)-1H-pyrazolo[3,4-b]pyrazin-6-yl]-2-[4-(trifluoromethyl)pyridin-2-yl]-octahydrocyclopenta[c]pyrrol-5-amine], the figure is below 10 µM.

Take `FC(F)Cn1ncc2ncc(N3C[C@H]4CCN(c5cc(C(F)(F)F)ccn5)C[C@H]4C3)nc21` (racemic) [Compound 11]: the EC50 lay within 10 to 50 µM.
